5 compounds from patent US20220387608A1, “ADRENOMEDULLIN-ANALOGUES FOR LONG-TERM STABILIZATION AND THEIR USE” (Bayer Aktiengesellschaft, priority 2019, published 2022) can be followed below.

A short description of data set [1]: Stability determination of TAMRA-labelled adrenomedullin analogues in human blood plasma. In kind it is in vitro ADME. The settings on record: 37° C., 10^-5 M, slow-decay phase half-life, read-out: t1/2 (slow) (converted). How it is done:
The stability of the peptides was investigated using fluorescently labeled analogues, which were prepared as described above.
The TAMRA-labeled analogues were dissolved in 1.5 m1 of human blood plasma to a concentration of 10^−5 M and incubated at 37° C. under constant shaking. Samples of 150 μl were taken at different time points and precipitated with 300 μl Ethanol/ACN (1:1) for at least 1 h at −20° C. After centrifugation for 30 s at 12000 rpm, the supernatant was collected and incubated at −20° C. for at least 3 h. Subsequently, it was transferred into Costar® Spin-X® Centrifuge Tube Filters (0.22 μm) and centrifuged for 1 h at 12000 rpm. The samples were analyzed by RP-HPLC using a VariTide RPC column (Agilent Technologies, 250 mm×4.6 mm, […], 200 Å) with linear gradients of 0.1% TFA in water and 0.08% TFA in ACN; fluorescence measurement (λex=525 nm; λem=572 nm) was used for the detection of the analogues and their N-terminal fragments. The percentage of intact peptide was determined by peak integration. The values of peaks containing additional cleavage fragments were corrected by comparing intensities of cleavage fragments and intact peptide using MALDI-MS analysis (UltraflexIII, Bruker). The stability of the peptides was calculated with GraphPad Prism 5 (GraphPad Software) using a two phase exponential decay function for the determination of slow-decay phase half-lives (ln(2)/Kslow; Kslow: rate constant of slow part of exponential decay).

Another data set deals with T1, AM1R (Homo sapiens, UniProt O60895+Q16602).
T1 construct: EYFP; ECFP; expressed in transfected cells; host or cells: HEK-293 (transient co-transfection)
T1 sequence (Q16602 23-461): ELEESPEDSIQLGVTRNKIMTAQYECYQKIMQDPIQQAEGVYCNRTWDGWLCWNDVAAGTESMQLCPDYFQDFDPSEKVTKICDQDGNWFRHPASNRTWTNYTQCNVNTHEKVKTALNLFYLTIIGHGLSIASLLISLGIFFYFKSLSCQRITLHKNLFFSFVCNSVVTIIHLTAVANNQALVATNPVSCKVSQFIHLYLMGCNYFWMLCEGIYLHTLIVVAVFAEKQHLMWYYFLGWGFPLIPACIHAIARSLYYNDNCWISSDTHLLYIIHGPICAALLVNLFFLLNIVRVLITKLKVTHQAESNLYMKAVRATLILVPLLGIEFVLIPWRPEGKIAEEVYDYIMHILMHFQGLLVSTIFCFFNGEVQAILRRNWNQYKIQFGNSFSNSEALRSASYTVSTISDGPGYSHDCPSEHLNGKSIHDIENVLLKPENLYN
T1 sequence (O60895 43-175): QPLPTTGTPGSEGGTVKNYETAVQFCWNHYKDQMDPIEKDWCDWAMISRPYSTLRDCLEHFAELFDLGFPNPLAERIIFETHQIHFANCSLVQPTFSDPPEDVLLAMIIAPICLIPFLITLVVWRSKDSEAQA
Description: Activity determination in vitro: cAMP/CRE-luciferase reporter assay in HEK293 cells transiently co-transfected with CLR and RAMP2. In kind it is cell-based. As to conditions: for Emax: HEK293, normalized to [G14]ADM(14-52); for EC50: HEK293 with CLR/RAMP2, CRE-luciferase, 3 h stimulation. Put shortly: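 HEK-293 cells transiently co-transfected with CLR-EYFP, RAMP2-ECFP and a CRE-luc2P reporter, stimulated 3 h at 37° C with eight ligand concentrations in triplicate. Luminescence read by ONE-Glo, corrected to 5 μM forskolin, normalized to [G14]ADM(14-52) standard, and fitted by non-linear regression.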
(In general: Reporter assays use an easily measured gene product as a stand-in for the process of interest.)

Positions of bridges follow the written chain, without caps; N, C: chain ends. Non-standard residues stand in square brackets, D forms with d. Residues, ends and D or L forms follow the SMILES beside them. *: point of attachment. X1 = CN(C)c1ccc2c(c1)Oc1cc(N(C)C)ccc1C21OC(=O)c2ccc(C(=O)*)cc21; C18 diacid = O=C(O)CCCCCCCCCCCCCCCCC(=O)*; PEG5 = NCCOCCOCCOCCOCCOCCC(=O)O; PEG3 = NCCOCCOCCOCCC(=O)O; Dap = NC[C@H](N)C(=O)O

Turning to `CC[C@H](C)[C@H](NC(=O)[C@H](CCC(N)=O)NC(=O)[C@H](Cc1c[nH]cn1)NC(=O)[C@H](C)NC(=O)[C@H](CC(C)C)NC(=O)[C@H](CCCCN)NC(=O)[C@H](CCC(N)=O)NC(=O)[C@@H](NC(=O)[C@@H](NC(=O)[C@@H]1CCC(=O)NC[C@H](NC(=O)CNC(=O)[C@H](CCCCNC(=O)CCCCCCCCCCCCCCCCC(=O)O)NC(=O)c2ccc3c(c2)C2(OC3=O)c3ccc(N(C)C)cc3Oc3cc(N(C)C)ccc32)C(=O)N[C@@H](CCCNC(=N)N)C(=O)N[C@@H](Cc2ccccc2)C(=O)NCC(=O)N[C@@H]([C@@H](C)O)C(=O)N1)[C@@H](C)O)C(C)C)C(=O)N[C@@H](Cc1ccc(O)cc1)C(=O)N[C@@H](CCC(N)=O)C(=O)N[C@@H](Cc1ccccc1)C(=O)N[C@H](C(=O)N[C@@H](CC(=O)O)C(=O)N[C@@H](CCCCN)C(=O)N[C@@H](CC(=O)O)C(=O)N[C@@H](CCCCN)C(=O)N[C@@H](CC(=O)O)C(=O)N[C@@H](CC(N)=O)C(=O)N[C@H](C(=O)N[C@@H](C)C(=O)N1CCC[C@H]1C(=O)N[C@H]1CCCCNC(=O)C[C@@H](C(=O)N2CCC[C@H]2C(=O)N[C@@H](CCC(N)=O)C(=O)NCC(=O)N[C@@H](Cc2ccc(O)cc2)C(N)=O)NC(=O)[C@H]([C@@H](C)CC)NC(=O)[C@H](CCCCN)NC(=O)[C@H](CO)NC1=O)C(C)C)[C@@H](C)O` [TAM-16] (X1-K(C18 diacid)G[Dap]RFGTETVQKLAHQIYQFTDKDKDNVAPKSKIDPQGY-NH2; lactam 3-8, 31-35), in data set [1], the half-life was greater than 144 h. In the case of `CC[C@H](C)[C@H](NC(=O)[C@H](CCC(N)=O)NC(=O)[C@H](Cc1c[nH]cn1)NC(=O)[C@H](C)NC(=O)[C@H](CC(C)C)NC(=O)[C@H](CCCCN)NC(=O)[C@H](CCC(N)=O)NC(=O)[C@@H](NC(=O)[C@@H](NC(=O)[C@@H]1CCC(=O)NC[C@H](NC(=O)CNC(=O)[C@@H](N)CCCCNC(=O)CCCCCCCCCCCCCCCCC(=O)O)C(=O)N[C@@H](CCCNC(=N)N)C(=O)N[C@@H](Cc2ccccc2)C(=O)NCC(=O)N[C@@H]([C@@H](C)O)C(=O)N1)[C@@H](C)O)C(C)C)C(=O)N[C@@H](Cc1ccc(O)cc1)C(=O)N[C@@H](CCC(N)=O)C(=O)N[C@@H](Cc1ccccc1)C(=O)N[C@H](C(=O)N[C@@H](CC(=O)O)C(=O)N[C@@H](CCCCN)C(=O)N[C@@H](CC(=O)O)C(=O)N[C@@H](CCCCN)C(=O)N[C@@H](CC(=O)O)C(=O)N[C@@H](CC(N)=O)C(=O)N[C@H](C(=O)N[C@@H](C)C(=O)N1CCC[C@H]1C(=O)N[C@H]1CCCCNC(=O)C[C@@H](C(=O)N2CCC[C@H]2C(=O)N[C@@H](CCC(N)=O)C(=O)NCC(=O)N[C@@H](Cc2ccc(O)cc2)C(N)=O)NC(=O)[C@H]([C@@H](C)CC)NC(=O)[C@H](CCCCN)NC(=O)[C@H](CO)NC1=O)C(C)C)[C@@H](C)O` [Example 16] (H-K(C18 diacid)G[Dap]RFGTETVQKLAHQIYQFTDKDKDNVAPKSKIDPQGY-NH2; lactam 3-8, 31-35), at AM1R, the Emax was 100 ± 5% and it took 1.4 nM to reach a half-maximal effect (EC50).

As for `CC[C@H](C)[C@H](NC(=O)[C@H](CCC(N)=O)NC(=O)[C@H](Cc1c[nH]cn1)NC(=O)[C@H](C)NC(=O)[C@H](CC(C)C)NC(=O)[C@H](CCCCN)NC(=O)[C@H](CCC(N)=O)NC(=O)[C@@H](NC(=O)[C@@H](NC(=O)[C@@H]1CSSC[C@H](NC(=O)CNC(=O)CN)C(=O)N[C@@H](CCCNC(=N)N)C(=O)N[C@@H](Cc2ccccc2)C(=O)NCC(=O)N[C@@H]([C@@H](C)O)C(=O)N1)[C@@H](C)O)C(C)C)C(=O)N[C@@H](Cc1ccc(O)cc1)C(=O)N[C@@H](CCC(N)=O)C(=O)N[C@@H](Cc1ccccc1)C(=O)N[C@H](C(=O)N[C@@H](CC(=O)O)C(=O)N[C@@H](CCCCN)C(=O)N[C@@H](CC(=O)O)C(=O)N[C@@H](CCCCN)C(=O)N[C@@H](CC(=O)O)C(=O)N[C@@H](CC(N)=O)C(=O)N[C@H](C(=O)N[C@@H](C)C(=O)N1CCC[C@H]1C(=O)N[C@H]1CC(=O)NCCCC[C@@H](C(=O)N2CCC[C@H]2C(=O)N[C@@H](CCC(N)=O)C(=O)NCC(=O)N[C@@H](Cc2ccc(O)cc2)C(N)=O)NC(=O)[C@H]([C@@H](C)CC)NC(=O)[C@H](CCCCN)NC(=O)[C@H](CO)NC1=O)C(C)C)[C@@H](C)O` [Example 2, ((4R,7S,13S,16S,19R)-19-(2-(2-aminoacetamido)acetamido)-13-benzyl-16-(3-guanidinopropyl)-7-((R)-1-hydroxyethyl)-6,9,12,15,18-pentaoxo-1,2-dithia-5,8,11,14,17-pentaazacycloicosane-4-carbonyl)-L-threonyl-ADM(23-43)-((3S,6S,9S,12S,20S)-6-(4-aminobutyl)-12-(λ^2-azaneyl)-3-((S)-sec-butyl)-9-(hydroxymethyl)-2,5,8,11,14-pentaoxo-1,4,7,10,15-pentaazacycloicosane-20-carbonyl)-L-prolyl-ADM(50-52)] (H-GGCRFGTCTVQKLAHQIYQFTDKDKDNVAPDSKIKPQGY-NH2; disulfide 3-8; lactam 31-35), at AM1R, the Emax stood at 91 ± 1% and the EC50 came to 4.8 nM. At AM1R, `CC[C@H](C)[C@H](NC(=O)[C@H](CCC(N)=O)NC(=O)[C@H](Cc1c[nH]cn1)NC(=O)[C@H](C)NC(=O)[C@H](CC(C)C)NC(=O)[C@H](CCCCN)NC(=O)[C@H](CCC(N)=O)NC(=O)[C@@H](NC(=O)[C@@H](NC(=O)[C@@H]1CSSC[C@H](NC(=O)CNC(=O)CN)C(=O)N[C@@H](CCCNC(=N)N)C(=O)N[C@@H](Cc2ccccc2)C(=O)NCC(=O)N[C@@H]([C@@H](C)O)C(=O)N1)[C@@H](C)O)C(C)C)C(=O)N[C@@H](Cc1ccc(O)cc1)C(=O)N[C@@H](CCC(N)=O)C(=O)N[C@@H](Cc1ccccc1)C(=O)N[C@H](C(=O)NCCOCCOCCOCCOCCOCCC(=O)N[C@H](C(=O)N[C@@H](C)C(=O)N1CCC[C@H]1C(=O)N[C@@H](CCCNC(=N)N)C(=O)N[C@@H](CO)C(=O)N[C@@H](CCCCN)C(=O)N[C@H](C(=O)N[C@@H](CO)C(=O)N1CCC[C@H]1C(=O)N[C@@H](CCC(N)=O)C(=O)NCC(=O)N[C@@H](Cc1ccc(O)cc1)C(N)=O)[C@@H](C)CC)C(C)C)[C@@H](C)O` [Example 11, ((4R,7S,13S,16S,19R)-19-(2-(2-aminoacetamido)acetamido)-13-benzyl-16-(3-guanidinopropyl)-7-((R)-1-hydroxyethyl)-6,9,12,15,18-pentaoxo-1,2-dithia-5,8,11,14,17-pentaazacycloicosane-4-carbonyl)-L-threonyl-ADM(23-34)-(1-(λ^2-azaneyl)-3,6,9,12,15-pentaoxaoctadecan-18-oyl)-L-valyl-ADM(42-52)] (H-GGCRFGTCTVQKLAHQIYQFT[PEG5]VAPRSKISPQGY-NH2; disulfide 3-8) came in with an Emax of 94 ± 2% and a 50% effective concentration (EC50) of 39 nM. With `CC[C@H](C)[C@H](NC(=O)[C@H](CCC(N)=O)NC(=O)[C@H](Cc1c[nH]cn1)NC(=O)[C@H](C)NC(=O)[C@H](CC(C)C)NC(=O)[C@H](CCCCN)NC(=O)[C@H](CCC(N)=O)NC(=O)[C@@H](NC(=O)[C@@H](NC(=O)[C@@H]1CSSC[C@H](NC(=O)CNC(=O)CN)C(=O)N[C@@H](CCCNC(=N)N)C(=O)N[C@@H](Cc2ccccc2)C(=O)NCC(=O)N[C@@H]([C@@H](C)O)C(=O)N1)[C@@H](C)O)C(C)C)C(=O)N[C@@H](Cc1ccc(O)cc1)C(=O)N[C@@H](CCC(N)=O)C(=O)N[C@@H](Cc1ccccc1)C(=O)N[C@H](C(=O)NCCOCCOCCOCCC(=O)N[C@@H](CC(=O)O)C(=O)N[C@@H](CC(N)=O)C(=O)N[C@H](C(=O)N[C@@H](C)C(=O)N1CCC[C@H]1C(=O)N[C@@H](CCCNC(=N)N)C(=O)N[C@@H](CO)C(=O)N[C@@H](CCCCN)C(=O)N[C@H](C(=O)N[C@@H](CO)C(=O)N1CCC[C@H]1C(=O)N[C@@H](CCC(N)=O)C(=O)NCC(=O)N[C@@H](Cc1ccc(O)cc1)C(N)=O)[C@@H](C)CC)C(C)C)[C@@H](C)O` [Example 7, ((4R,7S,13S,16S,19R)-19-(2-(2-aminoacetamido)acetamido)-13-benzyl-16-(3-guanidinopropyl)-7-((R)-1-hydroxyethyl)-6,9,12,15,18-pentaoxo-1,2-dithia-5,8,11,14,17-pentaazacycloicosane-4-carbonyl)-L-threonyl-ADM(23-34)-(3-(2-(2-(2-(λ^2-azaneyl)ethoxy)ethoxy)ethoxy)propanoyl)-L-aspartyl-ADM(40-52)] (H-GGCRFGTCTVQKLAHQIYQFT[PEG3]DNVAPRSKISPQGY-NH2; disulfide 3-8), at AM1R, the Emax was 103 ± 4% and the EC50 is 13 nM.

Broadly, the Emax is the maximal effect, on the per cent scale that the assay sets. The EC50 is the midpoint of the concentration-response curve. The low end stands for greater potency, the high end for weaker potency.
